Measured values: patent US12077503B2, “Substituted cyclic amides and their use as herbicides” (FMC CORPORATION, priority 2015, dated 2024)

Tests used:
Assay type in all cases: in vivo
[1] = system: giant foxtail (Setaria faberii); assay: Test A postemergence; settings: Setaria faberi, post-emergence, 240 h, Postemergence
Summary of the method: (§1)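 Greenhouse, ~10 d after spray; visual injury vs untreated controls, 0 = no effect, 100 = complete control. Preemergence: directed soil spray over planted seeds. Postemergence: plants 2–10 cm, 1–2 leaf stage. Loam/sand blend. Compound in non-phytotoxic solvent with surfactant.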

[2] = system: wheat (Triticum aestivum); assay: Test A postemergence; settings: Triticum aestivum, post-emergence, 240 h, Postemergence
Summary of the method: as §1

[3] = system: blackgrass (Alopecurus myosuroides); assay: Test A postemergence; settings: Alopecurus myosuroides, post-emergence, 240 h, Postemergence
Summary of the method: as §1

[4] = system: barnyardgrass (Echinochloa crus-galli); assay: Test A postemergence; settings: Echinochloa crus-galli, post-emergence, 240 h, Postemergence
Summary of the method: as §1

[5] = system: pigweed (Amaranthus retroflexus); assay: Test A postemergence; settings: Amaranthus retroflexus, post-emergence, 240 h, Postemergence
Summary of the method: as §1

[6] = system: Galium (catchweed bedstraw, Galium aparine); assay: Test A postemergence; settings: Galium, post-emergence, 240 h, Postemergence
Summary of the method: as §1

[7] = system: ragweed (common ragweed, Ambrosia elatior); assay: Test A postemergence; settings: Ambrosia artemisiifolia, post-emergence, 240 h, Postemergence
Summary of the method: as §1

[8] = system: Kochia (Kochia scoparia); assay: Test A postemergence; settings: Bassia scoparia, post-emergence, 240 h, Postemergence
Summary of the method: as §1

[9] = system: ryegrass, Italian (Italian ryegrass, Lolium multiflorum); assay: Test A postemergence; settings: Lolium multiflorum, post-emergence, 240 h, Postemergence
Summary of the method: as §1

[10] = system: corn (Zea mays); assay: Test A postemergence; settings: Zea mays, post-emergence, 240 h, Postemergence
Summary of the method: as §1

[11] = system: giant foxtail (Setaria faberii); assay: Test A preemergence; settings: Setaria faberi, pre-emergence, 240 h, Preemergence
Summary of the method: as §1

[12] = system: barnyardgrass (Echinochloa crus-galli); assay: Test A preemergence; settings: Echinochloa crus-galli, pre-emergence, 240 h, Preemergence
Summary of the method: as §1

[13] = system: pigweed (Amaranthus retroflexus); assay: Test A preemergence; settings: Amaranthus retroflexus, pre-emergence, 240 h, Preemergence
[14] = system: ragweed (common ragweed, Ambrosia elatior); assay: Test A preemergence; settings: Ambrosia artemisiifolia, pre-emergence, 240 h, Preemergence
Summary of the method: as §1

[15] = system: Kochia (Kochia scoparia); assay: Test A preemergence; settings: Bassia scoparia, pre-emergence, 240 h, Preemergence
Summary of the method: as §1

[16] = system: ryegrass, Italian (Italian ryegrass, Lolium multiflorum); assay: Test A preemergence; settings: Lolium multiflorum, pre-emergence, 240 h, Preemergence
Summary of the method: as §1

[17] = system: sedge, umbrella (small-flower umbrella sedge, Cyperus difformis); assay: Test B flooded paddy test; settings: Cyperus difformis, 360 h, Flood, 250 g ai/ha; visually evaluated after 13 to 15 d; read-out: Plant response rating, Sedge, Umbrella (0 to 100 scale where 0 is no effect and 100 is complete control)
Summary of the method: (§2)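 Plants at 2-leaf stage flooded to 3 cm above soil, with compounds applied directly to paddy water and that depth maintained. Plants kept in greenhouse 13–15 d. Visual rating versus controls on a 0 (no effect) to 100 (complete control) scale.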

[18] = system: barnyardgrass (Echinochloa crus-galli); assay: Test B flooded paddy test; settings: Echinochloa crus-galli, 360 h, Flood, 250 g ai/ha; visually evaluated after 13 to 15 d; read-out: Plant response rating, Barnyardgrass (0 to 100 scale where 0 is no effect and 100 is complete control)
Summary of the method: as §2

[19] = system: ducksalad (Heteranthera limosa); assay: Test B flooded paddy test; settings: Heteranthera limosa, 360 h, Flood, 250 g ai/ha; visually evaluated after 13 to 15 d; read-out: Plant response rating, Ducksalad (0 to 100 scale where 0 is no effect and 100 is complete control)
Summary of the method: as §2

[20] = system: rice (Oryra sativa); assay: Test B flooded paddy test; settings: Oryza sativa, 360 h, Flood, 250 g ai/ha; visually evaluated after 13 to 15 d; read-out: Plant response rating, Rice (0 to 100 scale where 0 is no effect and 100 is complete control)
Summary of the method: as §2

CN1C[C@H](c2ccc(Cl)cc2)[C@@H](C(=O)Nc2cccc(F)n2)C1=O [Compound 1399]
pest or weed control at 31 g/ha ([1]; 31 g ai/ha, 0 is no effect, 100 is complete control, read-out: Foxtail, Giant plant response rating (0 to 100 scale)): 70%
pest or weed control at 125 g/ha ([1]; 125 g ai/ha, visual injury after approx. 10 d, 0 to 100 scale, 0 no effect, 100 complete control, read-out: Plant response rating, Foxtail, Giant): 90%
plant injury at 31 g/ha ([2]; 31 g ai/ha, 0 is no effect, 100 is complete control, read-out: Wheat plant response rating (0 to 100 scale)): 0%
plant injury at 125 g/ha ([2]; 125 g ai/ha, visual injury after approx. 10 d, 0 to 100 scale, 0 no effect, 100 complete control, read-out: Plant response rating, Wheat): 20%
pest or weed control at 31 g/ha ([3]; 31 g ai/ha, 0 is no effect, 100 is complete control, read-out: Blackgrass plant response rating (0 to 100 scale)): 20%
pest or weed control at 125 g/ha ([3]; 125 g ai/ha, visual injury after approx. 10 d, 0 to 100 scale, 0 no effect, 100 complete control, read-out: Plant response rating, Blackgrass): 20%
pest or weed control at 31 g/ha ([4]; 31 g ai/ha, 0 is no effect, 100 is complete control, read-out: Barnyardgrass plant response rating (0 to 100 scale)): 90%
pest or weed control at 125 g/ha ([4]; 125 g ai/ha, visual injury after approx. 10 d, 0 to 100 scale, 0 no effect, 100 complete control, read-out: Plant response rating, Barnyardgrass): 90%
pest or weed control at 31 g/ha ([5]; 31 g ai/ha, 0 is no effect, 100 is complete control, read-out: Pigweed plant response rating (0 to 100 scale)): 0%
pest or weed control at 125 g/ha ([5]; 125 g ai/ha, visual injury after approx. 10 d, 0 to 100 scale, 0 no effect, 100 complete control, read-out: Plant response rating, Pigweed): 40%
pest or weed control at 31 g/ha ([6]; 31 g ai/ha, 0 is no effect, 100 is complete control, read-out: Galium plant response rating (0 to 100 scale)): 40%
pest or weed control at 125 g/ha ([6]; 125 g ai/ha, visual injury after approx. 10 d, 0 to 100 scale, 0 no effect, 100 complete control, read-out: Plant response rating, Galium): 60%
pest or weed control at 31 g/ha ([7]; 31 g ai/ha, 0 is no effect, 100 is complete control, read-out: Ragweed plant response rating (0 to 100 scale)): 0%
pest or weed control at 125 g/ha ([7]; 125 g ai/ha, visual injury after approx. 10 d, 0 to 100 scale, 0 no effect, 100 complete control, read-out: Plant response rating, Ragweed): 40%
pest or weed control at 31 g/ha ([8]; 31 g ai/ha, 0 is no effect, 100 is complete control, read-out: Kochia plant response rating (0 to 100 scale)): 50%
pest or weed control at 125 g/ha ([8]; 125 g ai/ha, visual injury after approx. 10 d, 0 to 100 scale, 0 no effect, 100 complete control, read-out: Plant response rating, Kochia): 70%
pest or weed control at 31 g/ha ([9]; 31 g ai/ha, 0 is no effect, 100 is complete control, read-out: Ryegrass, Italian plant response rating (0 to 100 scale)): 20%
pest or weed control at 125 g/ha ([9]; 125 g ai/ha, visual injury after approx. 10 d, 0 to 100 scale, 0 no effect, 100 complete control, read-out: Plant response rating, Ryegrass, Italian): 20%
plant injury at 31 g/ha ([10]; 31 g ai/ha, 0 is no effect, 100 is complete control, read-out: Corn plant response rating (0 to 100 scale)): 0%
Corn plant response rating (crop injury, 0 = no effect, 100 = complete kill) at 125 g/ha ([10]; 125 g ai/ha, visual injury after approx. 10 d, 0 to 100 scale, 0 no effect, 100 complete control): 0%
pest or weed control at 31 g/ha ([11]; 31 g ai/ha, 0 to 100 scale where 0 is no effect and 100 is complete control, read-out: Foxtail, Giant plant response rating): 90%
pest or weed control at 125 g/ha ([11]; 125 g ai/ha, 0 to 100 scale (0 no effect, 100 complete control), read-out: Plant response rating, Foxtail, Giant): 90%
pest or weed control at 31 g/ha ([12]; 31 g ai/ha, 0 to 100 scale where 0 is no effect and 100 is complete control, read-out: Barnyardgrass plant response rating): 80%
pest or weed control at 125 g/ha ([12]; 125 g ai/ha, 0 to 100 scale (0 no effect, 100 complete control), read-out: Plant response rating, Barnyardgrass): 90%
pest or weed control at 31 g/ha ([13]; 31 g ai/ha, 0 to 100 scale where 0 is no effect and 100 is complete control, read-out: Pigweed plant response rating): 30%
pest or weed control at 125 g/ha ([13]; 125 g ai/ha, 0 to 100 scale (0 no effect, 100 complete control), read-out: Plant response rating, Pigweed): 30%
pest or weed control at 31 g/ha ([14]; 31 g ai/ha, 0 to 100 scale where 0 is no effect and 100 is complete control, read-out: Ragweed plant response rating): 50%
pest or weed control at 125 g/ha ([14]; 125 g ai/ha, 0 to 100 scale (0 no effect, 100 complete control), read-out: Plant response rating, Ragweed): 60%
pest or weed control at 31 g/ha ([15]; 31 g ai/ha, 0 to 100 scale where 0 is no effect and 100 is complete control, read-out: Kochia plant response rating): 20%
pest or weed control at 125 g/ha ([15]; 125 g ai/ha, 0 to 100 scale (0 no effect, 100 complete control), read-out: Plant response rating, Kochia): 70%
pest or weed control at 31 g/ha ([16]; 31 g ai/ha, 0 to 100 scale where 0 is no effect and 100 is complete control, read-out: Ryegrass, Italian plant response rating): 0%
pest or weed control at 125 g/ha ([16]; 125 g ai/ha, 0 to 100 scale (0 no effect, 100 complete control), read-out: Plant response rating, Ryegrass, Italian): 40%
pest or weed control at 250 g/ha [17]: 0%
pest or weed control at 250 g/ha [18]: 85%
pest or weed control at 250 g/ha [19]: 100%
pest or weed control at 250 g/ha [20]: 15%
